Results: US4281121A, “1,3,4-Thiadiazole-2-carboxylic acid derivatives, process for making the same and fungicidal and nematocidal compositions containing same” (Schering Aktiengesellschaft, priority 1978, dated 1981)

System: Fusarium avenaceum
Assay: Threshold concentration test in case of Fusarium avenaceum (infested soil, garden peas)
Assay type: in vivo
Settings: 25 mg/l soil; 20 grains per dish; 18 days at 20-24° C.
Protocol: Threshold concentration test in case of Fusarium avenaceum
A 20% pulverulent active agent of the type further identified in the table below was mixed in uniform manner with a soil which had been heavily infested with Fusarium avenaceum. The thus treated soil was then placed into clay dishes of a capacity of 0.5 l of earth. Each dish was seeded without any intervening time with 20 grains of garden peas (Pisum sativum L. convar. medullare Alef.) of the type "Wunder von Kelvedon". After a cultivation time of 18 days at 20° to 24° C. in a hot house the number of sound peas was determined and a root evaluation was carried out. The active agents employed, the amounts and results appear from the following table.
(§1) The root evaluation was carried out on a scale from 1 to 4 as follows: […]

SMILES	number of sound peas
CCCC[S+]([O-])c1nnc(C#N)s1 (centres unmarked) [5-butylsulfinyl-1,3,4-thiadiazole-2-carbonitrile]	19
CCCCS(=O)(=O)c1nnc(C(=O)N2CCC2)s1 [5-butylsulfonyl-1,3,4-thiadiazole-2-carboxylic acid-N,N-trimethylenamide]	5
CC(C)[S+]([O-])c1nnc(C#N)s1 (centres unmarked) [5-isopropylsulfinyl-1,3,4-thiadiazole-2-carbonitrile]	18
C[S+]([O-])c1nnc(C#N)s1 (centres unmarked) [5-methylsulfinyl-1,3,4-thiadiazole-2-carbonitrile]	20
C[S+]([O-])c1nnc(C(=O)NCc2ccccc2Cl)s1 (centres unmarked) [5-methylsulfinyl-1,3,4-thiadiazole-2-carboxylic acid-(2-chlorobenzyleamide)]	7
CCC[S+]([O-])c1nnc(C(=O)NC(C)C)s1 (centres unmarked) [5-propylsulfinyl-1,3,4-thiadiazole-2-carboxylic acid-isopropylamide]	9
CCCCNC(=O)c1nnc(S(=O)(=O)CCC)s1 [5-propylsulfonyl-1,3,4-thiadiazole-2-carboxylic acid-butylamide]	9
S=C([S-])NCCNC(=S)[S-].[Mn+2] [Manganese ethylene-1,2-bis-dithiocarbamate, reference compound]	0

Same assay, conditions: 25 mg/l soil; 18 days

SMILES	root evaluation (1-4)
CCCC[S+]([O-])c1nnc(C#N)s1 (centres unmarked) [5-butylsulfinyl-1,3,4-thiadiazole-2-carbonitrile]	4
CCCCS(=O)(=O)c1nnc(C(=O)N2CCC2)s1 [5-butylsulfonyl-1,3,4-thiadiazole-2-carboxylic acid-N,N-trimethylenamide]	1
CC(C)[S+]([O-])c1nnc(C#N)s1 (centres unmarked) [5-isopropylsulfinyl-1,3,4-thiadiazole-2-carbonitrile]	4
C[S+]([O-])c1nnc(C#N)s1 (centres unmarked) [5-methylsulfinyl-1,3,4-thiadiazole-2-carbonitrile]	4
C[S+]([O-])c1nnc(C(=O)NCc2ccccc2Cl)s1 (centres unmarked) [5-methylsulfinyl-1,3,4-thiadiazole-2-carboxylic acid-(2-chlorobenzyleamide)]	2
CCC[S+]([O-])c1nnc(C(=O)NC(C)C)s1 (centres unmarked) [5-propylsulfinyl-1,3,4-thiadiazole-2-carboxylic acid-isopropylamide]	3
CCCCNC(=O)c1nnc(S(=O)(=O)CCC)s1 [5-propylsulfonyl-1,3,4-thiadiazole-2-carboxylic acid-butylamide]	1
S=C([S-])NCCNC(=S)[S-].[Mn+2] [Manganese ethylene-1,2-bis-dithiocarbamate, reference compound]	1

Same assay, conditions: 50 mg/l soil; 20 grains per dish; 18 days at 20-24° C.

SMILES	number of sound peas
CCCC[S+]([O-])c1nnc(C#N)s1 (centres unmarked) [5-butylsulfinyl-1,3,4-thiadiazole-2-carbonitrile]	19
CCCCS(=O)(=O)c1nnc(C(=O)N2CCC2)s1 [5-butylsulfonyl-1,3,4-thiadiazole-2-carboxylic acid-N,N-trimethylenamide]	13
CC(C)[S+]([O-])c1nnc(C#N)s1 (centres unmarked) [5-isopropylsulfinyl-1,3,4-thiadiazole-2-carbonitrile]	19
C[S+]([O-])c1nnc(C#N)s1 (centres unmarked) [5-methylsulfinyl-1,3,4-thiadiazole-2-carbonitrile]	18
C[S+]([O-])c1nnc(C(=O)NCc2ccccc2Cl)s1 (centres unmarked) [5-methylsulfinyl-1,3,4-thiadiazole-2-carboxylic acid-(2-chlorobenzyleamide)]	11
CCC[S+]([O-])c1nnc(C(=O)NC(C)C)s1 (centres unmarked) [5-propylsulfinyl-1,3,4-thiadiazole-2-carboxylic acid-isopropylamide]	13
CCCCNC(=O)c1nnc(S(=O)(=O)CCC)s1 [5-propylsulfonyl-1,3,4-thiadiazole-2-carboxylic acid-butylamide]	16
S=C([S-])NCCNC(=S)[S-].[Mn+2] [Manganese ethylene-1,2-bis-dithiocarbamate, reference compound]	0

Same assay, conditions: 50 mg/l soil; 18 days

SMILES	root evaluation (1-4)
CCCC[S+]([O-])c1nnc(C#N)s1 (centres unmarked) [5-butylsulfinyl-1,3,4-thiadiazole-2-carbonitrile]	4
CCCCS(=O)(=O)c1nnc(C(=O)N2CCC2)s1 [5-butylsulfonyl-1,3,4-thiadiazole-2-carboxylic acid-N,N-trimethylenamide]	2
CC(C)[S+]([O-])c1nnc(C#N)s1 (centres unmarked) [5-isopropylsulfinyl-1,3,4-thiadiazole-2-carbonitrile]	4
C[S+]([O-])c1nnc(C#N)s1 (centres unmarked) [5-methylsulfinyl-1,3,4-thiadiazole-2-carbonitrile]	4
C[S+]([O-])c1nnc(C(=O)NCc2ccccc2Cl)s1 (centres unmarked) [5-methylsulfinyl-1,3,4-thiadiazole-2-carboxylic acid-(2-chlorobenzyleamide)]	3
CCC[S+]([O-])c1nnc(C(=O)NC(C)C)s1 (centres unmarked) [5-propylsulfinyl-1,3,4-thiadiazole-2-carboxylic acid-isopropylamide]	4
CCCCNC(=O)c1nnc(S(=O)(=O)CCC)s1 [5-propylsulfonyl-1,3,4-thiadiazole-2-carboxylic acid-butylamide]	3
S=C([S-])NCCNC(=S)[S-].[Mn+2] [Manganese ethylene-1,2-bis-dithiocarbamate, reference compound]	1

Same assay, conditions: 100 mg/l soil; 20 grains per dish; 18 days at 20-24° C.

SMILES	number of sound peas
CCCC[S+]([O-])c1nnc(C#N)s1 (centres unmarked) [5-butylsulfinyl-1,3,4-thiadiazole-2-carbonitrile]	19
CCCCS(=O)(=O)c1nnc(C(=O)N2CCC2)s1 [5-butylsulfonyl-1,3,4-thiadiazole-2-carboxylic acid-N,N-trimethylenamide]	18
CC(C)[S+]([O-])c1nnc(C#N)s1 (centres unmarked) [5-isopropylsulfinyl-1,3,4-thiadiazole-2-carbonitrile]	18
C[S+]([O-])c1nnc(C#N)s1 (centres unmarked) [5-methylsulfinyl-1,3,4-thiadiazole-2-carbonitrile]	19
C[S+]([O-])c1nnc(C(=O)NCc2ccccc2Cl)s1 (centres unmarked) [5-methylsulfinyl-1,3,4-thiadiazole-2-carboxylic acid-(2-chlorobenzyleamide)]	18
CCC[S+]([O-])c1nnc(C(=O)NC(C)C)s1 (centres unmarked) [5-propylsulfinyl-1,3,4-thiadiazole-2-carboxylic acid-isopropylamide]	16
CCCCNC(=O)c1nnc(S(=O)(=O)CCC)s1 [5-propylsulfonyl-1,3,4-thiadiazole-2-carboxylic acid-butylamide]	17
S=C([S-])NCCNC(=S)[S-].[Mn+2] [Manganese ethylene-1,2-bis-dithiocarbamate, reference compound]	12

Same assay, conditions: 100 mg/l soil; 18 days

SMILES	root evaluation (1-4)
CCCC[S+]([O-])c1nnc(C#N)s1 (centres unmarked) [5-butylsulfinyl-1,3,4-thiadiazole-2-carbonitrile]	4
CCCCS(=O)(=O)c1nnc(C(=O)N2CCC2)s1 [5-butylsulfonyl-1,3,4-thiadiazole-2-carboxylic acid-N,N-trimethylenamide]	3
CC(C)[S+]([O-])c1nnc(C#N)s1 (centres unmarked) [5-isopropylsulfinyl-1,3,4-thiadiazole-2-carbonitrile]	4
C[S+]([O-])c1nnc(C#N)s1 (centres unmarked) [5-methylsulfinyl-1,3,4-thiadiazole-2-carbonitrile]	4
C[S+]([O-])c1nnc(C(=O)NCc2ccccc2Cl)s1 (centres unmarked) [5-methylsulfinyl-1,3,4-thiadiazole-2-carboxylic acid-(2-chlorobenzyleamide)]	4
CCC[S+]([O-])c1nnc(C(=O)NC(C)C)s1 (centres unmarked) [5-propylsulfinyl-1,3,4-thiadiazole-2-carboxylic acid-isopropylamide]	4
CCCCNC(=O)c1nnc(S(=O)(=O)CCC)s1 [5-propylsulfonyl-1,3,4-thiadiazole-2-carboxylic acid-butylamide]	4
S=C([S-])NCCNC(=S)[S-].[Mn+2] [Manganese ethylene-1,2-bis-dithiocarbamate, reference compound]	1

System: Pythium ultimum
Assay: Threshold concentration test for use of the compounds against Pythium ultimum (infested soil, garden peas)
Assay type: in vivo
Parameters: key to root evaluation (1-4): 4: white roots without fungous necrosis; 3: white roots, minor fungous necrosis; 2: brown roots, already more pronounced fungous necrosis; 1: heavy fungous necrosis, roots rotted
Settings: 20 mg/l soil; 3 weeks
Protocol: Threshold concentration test for use of the compounds against Pythium ultimum
A 20% concentration of certain pulverulent active agents as listed below were mixed in uniform manner into a soil which had been heavily infested by Pythium ultimum. The thus treated soil was then placed into clay dishes of a capacity of 0.5 l earth. Without any intermediate time lapse 20 grain of garden peas (Pisum sativum L. convar. medullare Alef.) of the type "Wunder von Kelvedon" were then seeded into each of the clay dishes. After a cultivation period of three weeks at 20° to 24° C. in a hothouse the number of sound peas was determined and a root evaluation was carried out. The active agents amounts and results appear from the following table.
as §1

SMILES	root evaluation (1-4)
CCCC[S+]([O-])c1nnc(C#N)s1 (centres unmarked) [5-butylsulfinyl-1,3,4-thiadiazole-2-carbonitrile]	4
CC(C)[S+]([O-])c1nnc(C#N)s1 (centres unmarked) [5-isopropylsulfinyl-1,3,4-thiadiazole-2-carbonitrile]	3
C[S+]([O-])c1nnc(C#N)s1 (centres unmarked) [5-methylsulfinyl-1,3,4-thiadiazole-2-carbonitrile]	4
S=C([S-])NCCNC(=S)[S-].[Mn+2] [Manganese ethylene-1,2-bis-dithiocarbamate, reference compound]	1

Same assay, conditions: 20 mg/l soil; 20 grains per dish; 3 weeks at 20-24° C.

SMILES	number of sound peas
CCCC[S+]([O-])c1nnc(C#N)s1 (centres unmarked) [5-butylsulfinyl-1,3,4-thiadiazole-2-carbonitrile]	18
CC(C)[S+]([O-])c1nnc(C#N)s1 (centres unmarked) [5-isopropylsulfinyl-1,3,4-thiadiazole-2-carbonitrile]	17
C[S+]([O-])c1nnc(C#N)s1 (centres unmarked) [5-methylsulfinyl-1,3,4-thiadiazole-2-carbonitrile]	19
S=C([S-])NCCNC(=S)[S-].[Mn+2] [Manganese ethylene-1,2-bis-dithiocarbamate, reference compound]	1

Same assay, conditions: 40 mg/l soil; 3 weeks

SMILES	root evaluation (1-4)
CCCC[S+]([O-])c1nnc(C#N)s1 (centres unmarked) [5-butylsulfinyl-1,3,4-thiadiazole-2-carbonitrile]	4
CC(C)[S+]([O-])c1nnc(C#N)s1 (centres unmarked) [5-isopropylsulfinyl-1,3,4-thiadiazole-2-carbonitrile]	4
C[S+]([O-])c1nnc(C#N)s1 (centres unmarked) [5-methylsulfinyl-1,3,4-thiadiazole-2-carbonitrile]	4
S=C([S-])NCCNC(=S)[S-].[Mn+2] [Manganese ethylene-1,2-bis-dithiocarbamate, reference compound]	1

Same assay, conditions: 40 mg/l soil; 20 grains per dish; 3 weeks at 20-24° C.

SMILES	number of sound peas
CCCC[S+]([O-])c1nnc(C#N)s1 (centres unmarked) [5-butylsulfinyl-1,3,4-thiadiazole-2-carbonitrile]	18
CC(C)[S+]([O-])c1nnc(C#N)s1 (centres unmarked) [5-isopropylsulfinyl-1,3,4-thiadiazole-2-carbonitrile]	17
C[S+]([O-])c1nnc(C#N)s1 (centres unmarked) [5-methylsulfinyl-1,3,4-thiadiazole-2-carbonitrile]	20
S=C([S-])NCCNC(=S)[S-].[Mn+2] [Manganese ethylene-1,2-bis-dithiocarbamate, reference compound]	4

Same assay, conditions: 80 mg/l soil; 3 weeks

SMILES	root evaluation (1-4)
CCCC[S+]([O-])c1nnc(C#N)s1 (centres unmarked) [5-butylsulfinyl-1,3,4-thiadiazole-2-carbonitrile]	4
CC(C)[S+]([O-])c1nnc(C#N)s1 (centres unmarked) [5-isopropylsulfinyl-1,3,4-thiadiazole-2-carbonitrile]	4
C[S+]([O-])c1nnc(C#N)s1 (centres unmarked) [5-methylsulfinyl-1,3,4-thiadiazole-2-carbonitrile]	4
S=C([S-])NCCNC(=S)[S-].[Mn+2] [Manganese ethylene-1,2-bis-dithiocarbamate, reference compound]	1

Same assay, conditions: 80 mg/l soil; 20 grains per dish; 3 weeks at 20-24° C.

SMILES	number of sound peas
CCCC[S+]([O-])c1nnc(C#N)s1 (centres unmarked) [5-butylsulfinyl-1,3,4-thiadiazole-2-carbonitrile]	20
CC(C)[S+]([O-])c1nnc(C#N)s1 (centres unmarked) [5-isopropylsulfinyl-1,3,4-thiadiazole-2-carbonitrile]	19
C[S+]([O-])c1nnc(C#N)s1 (centres unmarked) [5-methylsulfinyl-1,3,4-thiadiazole-2-carbonitrile]	20
S=C([S-])NCCNC(=S)[S-].[Mn+2] [Manganese ethylene-1,2-bis-dithiocarbamate, reference compound]	11

System: Helminthosporium gram
Assay: not given
Settings: 50 g active agent per 100 kg; about 5 weeks

SMILES	% activity [%]
CC(C)[S+]([O-])c1nnc(C#N)s1 (centres unmarked) [5-isopropylsulfinyl-1,3,4-thiadiazole-2-carbonitrile]	93
C[S+]([O-])c1nnc(C#N)s1 (centres unmarked) [5-methylsulfinyl-1,3,4-thiadiazole-2-carbonitrile]	94
CCC[S+]([O-])c1nnc(C(=O)NC(C)C)s1 (centres unmarked) [5-propylsulfinyl-1,3,4-thiadiazole-2-carboxylic acid-isopropylamide]	100

System: Tilletia caries
Assay: Treatment of oat seeds infested with Tilletia caries (spore germination)
Assay type: in vivo
Settings: 10 g active agent per 100 kg

SMILES	% activity [%]
CCCCNC(=O)c1nnc(S(=O)(=O)CCC)s1 [5-propylsulfonyl-1,3,4-thiadiazole-2-carboxylic acid-butylamide]	99.2

Same assay, conditions: 20 g active agent per 100 kg

SMILES	% activity [%]
CC(C)[S+]([O-])c1nnc(C#N)s1 (centres unmarked) [5-isopropylsulfinyl-1,3,4-thiadiazole-2-carbonitrile]	87
C[S+]([O-])c1nnc(C#N)s1 (centres unmarked) [5-methylsulfinyl-1,3,4-thiadiazole-2-carbonitrile]	100
CCC[S+]([O-])c1nnc(C(=O)NC(C)C)s1 (centres unmarked) [5-propylsulfinyl-1,3,4-thiadiazole-2-carboxylic acid-isopropylamide]	100
CCCCNC(=O)c1nnc(S(=O)(=O)CCC)s1 [5-propylsulfonyl-1,3,4-thiadiazole-2-carboxylic acid-butylamide]	99.7

Same assay, conditions: 50 g active agent per 100 kg

SMILES	% activity [%]
CCCC[S+]([O-])c1nnc(C#N)s1 (centres unmarked) [5-butylsulfinyl-1,3,4-thiadiazole-2-carbonitrile]	100
CCCCS(=O)(=O)c1nnc(C(=O)N2CCC2)s1 [5-butylsulfonyl-1,3,4-thiadiazole-2-carboxylic acid-N,N-trimethylenamide]	100
CC(C)[S+]([O-])c1nnc(C#N)s1 (centres unmarked) [5-isopropylsulfinyl-1,3,4-thiadiazole-2-carbonitrile]	100
C[S+]([O-])c1nnc(C#N)s1 (centres unmarked) [5-methylsulfinyl-1,3,4-thiadiazole-2-carbonitrile]	100
CCC[S+]([O-])c1nnc(C(=O)NC(C)C)s1 (centres unmarked) [5-propylsulfinyl-1,3,4-thiadiazole-2-carboxylic acid-isopropylamide]	100
CCCCNC(=O)c1nnc(S(=O)(=O)CCC)s1 [5-propylsulfonyl-1,3,4-thiadiazole-2-carboxylic acid-butylamide]	100
